Measurements reported in US8637511B2, “Aminopyrimidines useful as kinase inhibitors” (Vertex Pharmaceuticals Incorporated, priority 2005, dated 2014).

Each molecule was assayed against T1, human Itk kinase (Homo sapiens, UniProt Q08881) (assay: Itk inhibition assay: radioactivity-based assay). Conditions: Ki(app).
T1 sequence (Q08881 1-620): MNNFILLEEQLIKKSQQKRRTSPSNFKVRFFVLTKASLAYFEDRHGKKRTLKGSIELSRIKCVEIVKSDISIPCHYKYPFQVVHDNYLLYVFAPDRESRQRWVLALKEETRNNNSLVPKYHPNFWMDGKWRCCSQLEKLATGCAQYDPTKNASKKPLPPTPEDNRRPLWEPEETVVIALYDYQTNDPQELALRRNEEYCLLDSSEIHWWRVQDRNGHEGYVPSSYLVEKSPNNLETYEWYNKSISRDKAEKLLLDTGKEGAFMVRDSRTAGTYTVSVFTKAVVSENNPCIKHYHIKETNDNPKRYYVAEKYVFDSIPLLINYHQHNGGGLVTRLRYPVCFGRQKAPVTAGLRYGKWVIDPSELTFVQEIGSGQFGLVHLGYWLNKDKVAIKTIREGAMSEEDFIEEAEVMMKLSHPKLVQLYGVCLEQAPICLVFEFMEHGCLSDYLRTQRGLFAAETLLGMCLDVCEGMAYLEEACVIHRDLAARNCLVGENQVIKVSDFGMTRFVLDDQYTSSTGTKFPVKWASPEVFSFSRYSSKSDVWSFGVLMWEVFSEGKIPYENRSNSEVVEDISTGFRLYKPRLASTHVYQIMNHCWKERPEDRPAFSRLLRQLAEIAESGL
Assay type: biochemical
Method: The compounds of the present invention were evaluated as inhibitors of human Itk kinase using a radioactivity-based assay. These compounds can also be evaluated using a spectrophotometric or alphascreen assay.
Assays were carried out in a mixture of 20 mM MOPS (pH 7.0), 10 mM MgCl2, 0.1% BSA and 1 mM DTT. Final substrate concentrations in the assay were 7.5 μM [γ-^33P]ATP (400 μCi ^33P ATP/μmol ATP, Amersham Pharmacia Biotech/Sigma Chemicals) and 3 μM peptide (SAM68 protein Δ332-443). Assays were carried out at 25° C. in the presence of 50 nM Itk. An assay stock buffer solution was prepared containing all of the reagents listed above, with the exception of ATP and the test compound of interest. 50 μL of the stock solution was placed in a 96 well plate followed by addition of 2 μL of DMSO stock containing serial dilutions of the test compound (typically starting from a final concentration of 50 μM with 2-fold serial dilutions) in duplicate (final DMSO concentration 2%). The plate was pre-incubated for 10 minutes at 25° C. and the reaction initiated by addition of 50 μL [γ-^33P]ATP (final concentration 7.5 μM).
The reaction was stopped after 10 minutes by the addition of 100 μL 0.2M phosphoric acid+0.01% TWEEN 20. A multiscreen phosphocellulose filter 96-well plate (Millipore, Cat no. MAPHNOB50) was pretreated with 100 μL 0.2M phosphoric acid+0.01% TWEEN 20 prior to the addition of 170 μL of the stopped assay mixture. The plate was washed with 4×200 μL 0.2M phosphoric acid+0.01% TWEEN 20. After drying, 30 μL Optiphase ‘SuperMix’ liquid scintillation cocktail (Perkin Elmer) was added to the well prior to scintillation counting (1450 Microbeta Liquid Scintillation Counter, Wallac).
Ki(app) data were calculated from non-linear regression analysis of the initial rate data using the Prism software package (GraphPad Prism version 3.0cx for Macintosh, GraphPad Software, San Diego Calif., USA).

First: Cc1ccc(S(=O)(=O)Nc2ccc(Sc3nc(Nc4cc(C)[nH]n4)cc(N4CCC4)n3)cc2)cc1 [Compound 27]
Second: Cc1ccc(C(=O)Nc2ccc(Sc3nc(Nc4cc(C)[nH]n4)cc(N4CCC4)n3)cc2)cc1 [Compound 28]
The Ki of the first is higher: 1000 to 2000 nM for the first, 100 to 1000 nM for the second.

`Cc1cnc(Nc2cc(N3CC(N(C)C)C3)nc(Sc3ccc(NC(=O)C4CC4)cc3)n2)s1` [Compound 1] and `Cc1cnc(Nc2cc(N3CC(O)C3)nc(Sc3ccc(NC(=O)C4CC4)cc3)n2)s1` [Compound 3] fall in the same range of Ki: 100 to 1000 nM for the first, 100 to 1000 nM for the second.

`CCC(=O)Nc1ccc(Sc2nc(C#CC(C)(C)N3CCC3)cc(Nc3cc(C)n[nH]3)n2)cc1` [Compound 77] and `CCC(=O)Nc1ccc(Sc2nc(Nc3cc(C)n[nH]3)cc(N3CC(O)(C(C)(C)C)C3)n2)cc1` [Compound 81] cannot be ordered by Ki: 100 to 1000 nM for the first, no more than 100 nM for the second.

`Cc1cc(Nc2cc(N3CCC3)nc(Sc3ccc(NC(=O)Cc4ccccc4)cc3)n2)n[nH]1` [Compound 35] and `CCC(=O)Nc1ccc(Sc2nc(Nc3cc(C)[nH]n3)cc(N3CCC3)n2)cc1` [Compound 14] fall in the same range of Ki: 100 to 1000 nM for the first, 100 to 1000 nM for the second.

First: Cc1cc(Nc2cc(N3CCC3)nc(Sc3cccc(NC(=O)c4ccccc4Cl)c3)n2)[nH]n1 [Compound 49]
Second: Cc1cc(Nc2cc(N3CC(F)C3)nc(Sc3ccc(NC(=O)c4ccccc4Cl)cc3)n2)[nH]n1 [Compound 60]
The Ki of the first is higher: 1000 to 2000 nM for the first, no more than 100 nM for the second.

`Cc1cc(Nc2cc(N3CC(C)C3)nc(Sc3ccc(NC(=O)c4ccccc4Cl)cc3)n2)n[nH]1` [Compound 39] and `COC1CN(c2cc(Nc3cc(C)[nH]n3)nc(Sc3ccc(NC(=O)c4ccccc4Cl)cc3)n2)C1` [Compound 12] cannot be ordered by Ki: no more than 100 nM for the first, no more than 100 nM for the second.

`Cc1cc(Nc2cc(N3CCC3)nc(Sc3ccc(NC(=O)c4c(F)cccc4N4CCC4)cc3)n2)n[nH]1` [Compound 8] and `Cc1cc(Nc2cc(N3CCC3)nc(Sc3ccc(NC(=O)c4ccc(F)cc4F)cc3)n2)n[nH]1` [Compound 44] fall in the same range of Ki: 100 to 1000 nM for the first, 100 to 1000 nM for the second.

`Cc1cc(Nc2cc(N3CCC3)nc(Sc3ccc(NC(=O)Cc4cccc(Cl)c4)cc3)n2)[nH]n1` [Compound 58] and `Cc1cc(Nc2cc(N3CCC3)nc(Sc3ccc(NC(=O)c4ccc(Cl)cc4Cl)cc3)n2)n[nH]1` [Compound 162] fall in the same range of Ki: 100 to 1000 nM for the first, 100 to 1000 nM for the second.

`CCC(=O)Nc1ccc(Sc2nc(Nc3cc(C)n[nH]3)cc(N3CC(C)(NC(C)(C)C)C3)n2)cc1` [Compound 80] and `CCC(=O)Nc1ccc(Sc2nc(Nc3cc(C)n[nH]3)cc(N3CC(C)(O)C3)n2)cc1` [Compound 71] fall in the same range of Ki: 100 to 1000 nM for the first, 100 to 1000 nM for the second.

`Cc1cc(Nc2cc(N3CCC3)nc(Sc3ccc(NC(=O)c4ocnc4C)cc3)n2)n[nH]1` [Compound 167] and `Cc1cc(Nc2cc(N3CCC3)nc(Sc3ccc(NC(=O)c4nccn4C)cc3)n2)n[nH]1` [Compound 166] fall in the same range of Ki: 1000 to 2000 nM for the first, 1000 to 2000 nM for the second.

`Cc1cc(Nc2cc(N3CCC3)nc(Sc3ccc(NC(=O)c4ccc(Cl)cc4)cc3)n2)n[nH]1` [Compound 54] and `CCNC(=O)c1ccc(Sc2nc(Nc3cc(C)[nH]n3)cc(N3CCC3)n2)cc1` [Compound 20] fall in the same range of Ki: 100 to 1000 nM for the first, 100 to 1000 nM for the second.

`Cc1cnc(Nc2cc(N3CCC3)nc(Sc3ccc(NC(=O)C4CC4)cc3)n2)s1` [Compound 4] and `Cc1cnc(Nc2cc(N3CC(N)C3)nc(Sc3ccc(NC(=O)C4CC4)cc3)n2)s1` [Compound 2] fall in the same range of Ki: 100 to 1000 nM for the first, 100 to 1000 nM for the second.

`Cc1cc(Nc2cc(N3CCC3)nc(Sc3ccc(NC(=O)C4CCCCC4)cc3)n2)n[nH]1` [Compound 30] and `Cc1cc(Nc2cc(N3CCC3)nc(Sc3ccc(NC(=O)C4CC4)cc3)n2)n[nH]1` [Compound 17] fall in the same range of Ki: 100 to 1000 nM for the first, 100 to 1000 nM for the second.

`CCC(=O)Nc1ccc(Sc2nc(Nc3cc(C4CC4)n[nH]3)cc(N3CC(C)(O)C3)n2)cc1` [Compound 76] and `CCC(=O)Nc1ccc(Sc2nc(Nc3cc(C)n[nH]3)cc(N3CC(C)(C#N)C3)n2)cc1` [Compound 79] cannot be ordered by Ki: no more than 100 nM for the first, 100 to 1000 nM for the second.

`CC1=NN=C(Nc2cc(N3CCC3)nc(Sc3ccc(NC(=O)C4CCCN4C)cc3)n2)C1` (stereo not shown) [Compound 6] and `CC1=NN=C(Nc2cc(N3CCC3)nc(Sc3ccc(NC(=O)c4ccccc4)cc3)n2)C1` [Compound 52] fall in the same range of Ki: 100 to 1000 nM for the first, 100 to 1000 nM for the second.

`Cc1cc(Nc2cc(N3CCC3)nc(Sc3ccc(N(C)C(=O)c4ccccc4F)cc3)n2)n[nH]1` [Compound 10] and `Cc1cc(Nc2cc(N3CCC3)nc(Sc3ccc4ccccc4c3)n2)n[nH]1` [Compound 25] fall in the same range of Ki: 1000 to 2000 nM for the first, 1000 to 2000 nM for the second.

`CC1=NN=C(Nc2cc(N3CCC3)nc(Sc3ccc(NC(=O)c4cccc(C(F)(F)F)c4F)cc3)n2)C1` [Compound 55] and `CC1=NN=C(Nc2cc(N3CCC3)nc(Sc3ccc(NC(=O)c4cccc(Cl)c4F)cc3)n2)C1` [Compound 61] cannot be ordered by Ki: 100 to 1000 nM for the first, no more than 100 nM for the second.

`CCC(=O)Nc1ccc(Sc2nc(Nc3cc(C)[nH]n3)cc(N3CC(O)C3)n2)cc1` [Compound 15] and `Cc1cc(Nc2cc(N3CCC3)nc(Sc3ccc(NC(=O)CC(F)(F)F)cc3)n2)n[nH]1` [Compound 40] fall in the same range of Ki: 100 to 1000 nM for the first, 100 to 1000 nM for the second.

`Cc1cc(Nc2cc(N3CC(OC(C)(C)C)C3)nc(Sc3ccc(NC(=O)c4ccccc4Cl)cc3)n2)[nH]n1` [Compound 66] and `Cc1cc(Nc2cc(N3CC(C#N)C3)nc(Sc3ccc(NC(=O)c4ccccc4Cl)cc3)n2)n[nH]1` [Compound 16] cannot be ordered by Ki: 100 to 1000 nM for the first, no more than 100 nM for the second.

First: CC1=NN=C(Nc2cc(N3CCC3)nc(Sc3ccc(NC(=O)c4ccccc4Cl)cc3)n2)C1 [Compound 5]
Second: Cc1cc(Nc2cc(N3CCC3)nc(Sc3ccc(NC(=O)OC(C)(C)C)cc3)n2)n[nH]1 [Compound 26]
The Ki of the first is lower: 100 to 1000 nM for the first, 1000 to 2000 nM for the second.
